From paper PMC10892984, “Novel Antineoplastic Inducers of Mitochondrial Apoptosis in Human Cancer Cells” (Molecules, 2024)

Assays:
[1] = system: DU-145 cells; experiment: Cytochrome c assay (mitochondrial and cytosolic), ELISA; format: cell-based, human
Method: (§1) Cell numbers of 2 × 10^6 PC-3 and DU-145 cells were seeded into a […]. […] The protein content for each fraction was calculated to determine the mass content of cytochrome c in each fraction (pg cytochrome c/mg total protein). The mass content of cytochrome c (pg cytochrome c/mg total protein) was normalized towards the corresponding blank DMSO control and is given in percent (%) of blank DMSO control.

[2] = system: PC-3 cells; experiment: as above; format: cell-based, human; conditions: 25 µM
Method: as §1

[3] = system: CCRF-CEM
[4] = system: A549
[5] = system: HOP-62
[6] = system: NCI-H23
[7] = system: HCC-2998
[8] = system: KM-12
[9] = system: SW-620
[10] = system: SNB-19
[11] = system: MALME-3M; conditions: 48 h
[12] = system: SK-MEL-28
[13] = system: SK-MEL-5
[14] = system: UACC-257
[15] = system: IGROV1
[16] = system: OVCAR-4
[17] = system: SK-OV-3
[18] = system: 786-0
[19] = system: ACHN
[20] = system: CAKI-1
[21] = system: RXF 393
[22] = system: PC-3
[23] = system: BT-549
[24] = system: T-47D; conditions: 48 h
[25] = system: MDA-MB-468
[26] = system: 60 human cancer cell lines
From the text: The defined tumor inhibition criterion (GI50, TGI, or LC50) is recalculated in log10 expression, and the colored bars, which indicate then the sensitivity of the individual tumor cell line to the agent, are given in log10 units. […] The most important feature is at the bottom of the page: the MID (Mean of Inhibition Data) indicates the mean concentration for all tested cell lines required for the drug to reach the defined tumor inhibition criterion (GI50, TGI, or LC50). It is given in Log10GI50, Log10TGI, and Log10LC50. From those values, the corresponding MID is calculated. […] The MID can be transformed from logarithmic into linear concentrations by the formula: c = 10^MID.
The human tumor cell lines of the cancer screening panel are grown in RPMI-1640 medium containing 5% fetal bovine serum (FBS) and 2 mM L-glutamine. For a typical screening experiment, cells are inoculated into 96-well microtiter plates in 100 μL at plating densities ranging from 5000 to 40,000 cells/well, depending on the doubling time of individual cell lines. After cell inoculation, the microtiter plates are incubated at 37 °C, 5% CO2, 95% air, and 100% relative humidity for 24 h prior to the addition of experimental drugs. After 24 h, two plates of each cell line are fixed in situ with trichloroacetic acid (TCA) to represent a measurement of the cell population for each cell line at the time of drug addition (Tz). Experimental drugs are solubilized in dimethyl sulfoxide (DMSO) at 400-fold the desired final maximum test concentration and stored frozen prior to use. At the time of drug addition, an aliquot of frozen concentrate is thawed and diluted to twice the desired final maximum test concentration with a complete medium containing 50 μg/mL gentamicin. Additional four, 10-fold or ½ log serial dilutions are made to provide a total of five drug concentrations plus control. Aliquots of 100 μL of these different drug dilutions are added to the appropriate microtiter wells already containing 100 μL of the medium, resulting in the required final drug concentrations.
Following drug addition, the plates are incubated for an additional 48 h at 37 °C, 5% CO2, 95% air, and 100% relative humidity. For adherent cells, the assay is terminated by the addition of cold TCA. Cells are fixed in situ by the gentle addition of 50 μL of cold 50% (m/v) TCA (final concentration, 10% TCA) and incubated for 60 min at 4 °C. The supernatant is discarded, and the plates are washed five times with tap water and air dried. Sulforhodamine B (SRB) solution [100 μL at 0.4% (m/v) in 1% acetic acid] is added to each well, and plates are incubated for 10 min at room temperature. After staining, unbound dye is removed by washing five times with 1% acetic acid, and the plates are air dried. Bound stain is subsequently solubilized with 10 mM trizma® base [2-amino-2-(hydroxymethyl)-1,3-propandiol, tris base, trometamol], and the absorbance is read on an automated plate reader at a wavelength of λ = 515 nm. For suspension cells, the methodology is the same, except that the assay is terminated by fixing settled cells at the bottom of the wells by gently adding 50 μL of 80% TCA (final concentration, 16% TCA). Using the seven absorbance measurements [time zero, (Tz), control growth, (C), and test growth in the presence of the drug at the five concentration levels (Ti)], the percentage growth is calculated at each of the drug concentration levels. Percentage growth inhibition is calculated as:[(Ti − Tz)/(C − Tz)] × 100 for concentrations for which Ti ≥ Tz [(Ti − Tz)/Tz] × 100 for concentrations for which Ti < Tz
Three dose-response parameters are calculated for each experimental agent.

[27] = Homo sapiens, 48 h, read-out: LC50

Question: With `c1cc(CNC23CC4CC(CC(C4)C2)C3)cc(C[N+](Cc2cccc(CNC34CC5CC(CC(C5)C3)C4)c2)(Cc2cccc(CNC34CC5CC(CC(C5)C3)C4)c2)Cc2cccc(CNC34CC5CC(CC(C5)C3)C4)c2)c1` (stereo not drawn) [Compound 1, tetrakis{3-[(tricyclo[3.3.1.1^3,7]decan-1-ammonio)methyl]benzyl}ammonium pentachloride] as the compound, how does the “toxicity for the cell line” value ([1]; 25 µM, 50 µM and 75 µM, 48 h post-treatment) read?
Answer: Its value is “highly toxic”.

Question: And the “cell death with depletion of cytosolic cytochrome c” value ([1]; 25.0 µM, 48 h)?
Answer: Its value is “induced complete cell death”.

Question: And the “concentration at which cytochrome c translocation from mitochondria into the cytosol was readily induced” value ([1]; 48 h, tested 500 nM, 1 µM, 5 µM, 25 µM)?
Answer: Its value is 5.0 µM.

Question: And the “toxicity for the cell line” value ([2]; 50 µM and 75 µM, 48 h post-treatment)?
Answer: The value was “highly toxic”.

Question: And the “concentration at which cytochrome c translocation from mitochondria into the cytosol was readily induced” value ([2]; 48 h, tested 500 nM, 1 µM, 5 µM)?
Answer: The value was 25.0 µM.

Question: What about the GI50 ([3]; Homo sapiens, 48 h) of the same compound?
Answer: The GI50 was 1460 nM.

Question: And the CC50 [3, 27]?
Answer: The CC50 was over 50 µM.

Question: And the TGI ([3]; leukemia, mutant p53, 48 h)?
Answer: The TGI was over 50 µM.

Question: And the TGI ([4]; A549, non-small-cell lung cancer, wild-type p53, 48 h)?
Answer: The TGI was 8.70 µM.

Question: And the GI50 ([4]; Homo sapiens, A549, 48 h)?
Answer: Its GI50 is 2130 nM.

Question: What about the CC50 ([4]; Homo sapiens, A549, 48 h, read-out: LC50) of the same compound?
Answer: The CC50 was 24.2 µM.

Question: What about the TGI ([5]; HOP-62, non-small-cell lung cancer, mutant p53, 48 h) of the same compound?
Answer: The TGI was 10.1 µM.

Question: What about the GI50 ([5]; Homo sapiens, HOP-62, 48 h) of the same compound?
Answer: The GI50 was 2660 nM.

Question: And the CC50 ([5]; Homo sapiens, HOP-62, 48 h, read-out: LC50)?
Answer: The CC50 was 29.7 µM.

Question: And the GI50 ([6]; Homo sapiens, NCI-H23, 48 h)?
Answer: The GI50 was 1530 nM.

Question: And the CC50 ([6]; Homo sapiens, NCI-H23, 48 h, read-out: LC50)?
Answer: Its CC50 is 28.2 µM.

Question: What about the TGI ([6]; NCI-H23, non-small-cell lung cancer, mutant p53, 48 h) of the same compound?
Answer: Its TGI is 6.36 µM.

Question: And the TGI ([7]; HCC-2998, colon cancer, mutant p53, 48 h)?
Answer: The TGI was 5.31 µM.

Question: And the GI50 ([7]; Homo sapiens, HCC 2998, 48 h)?
Answer: Its GI50 is 1220 nM.

Question: What about the CC50 ([7]; Homo sapiens, HCC 2998, 48 h, read-out: LC50) of the same compound?
Answer: Its CC50 is 22.6 µM.

Question: What about the GI50 ([8]; Homo sapiens, KM12, 48 h) of the same compound?
Answer: The GI50 was 1650 nM.

Question: And the CC50 ([8]; Homo sapiens, KM12, 48 h, read-out: LC50)?
Answer: The CC50 was 20.6 µM.

Question: What about the TGI ([8]; KM-12, colon cancer, mutant p53, 48 h) of the same compound?
Answer: Its TGI is 6.75 µM.

Question: And the GI50 ([9]; Homo sapiens, SW-620, 48 h)?
Answer: The GI50 was 1250 nM.

Question: And the CC50 ([9]; Homo sapiens, SW-620, 48 h, read-out: LC50)?
Answer: Its CC50 is 17.2 µM.

Question: What about the TGI ([9]; SW-620, colon cancer, mutant p53, 48 h) of the same compound?
Answer: The TGI was 3.95 µM.

Question: What about the GI50 ([10]; Homo sapiens, SNB-19, 48 h) of the same compound?
Answer: Its GI50 is 1920 nM.

Question: And the CC50 ([10]; Homo sapiens, SNB-19, 48 h, read-out: LC50)?
Answer: The CC50 was 19.9 µM.

Question: And the TGI ([10]; SNB-19, CNS cancer (brain tumor), mutant p53, 48 h)?
Answer: Its TGI is 7.27 µM.

Question: What about the GI50 ([11]; Homo sapiens, Malme-3M) of the same compound?
Answer: Its GI50 is 839 nM.

Question: And the CC50 ([11]; Homo sapiens, Malme-3M, read-out: LC50)?
Answer: Its CC50 is 4.12 µM.

Question: And the TGI ([11]; MALME-3M, melanoma, wild-type p53)?
Answer: The TGI was 1.86 µM.

Question: What about the GI50 ([12]; Homo sapiens, SK-MEL-28, 48 h) of the same compound?
Answer: The GI50 was 1660 nM.

Question: What about the CC50 ([12]; Homo sapiens, SK-MEL-28, 48 h, read-out: LC50) of the same compound?
Answer: Its CC50 is 21.9 µM.

Question: And the TGI ([12]; SK-MEL-28, melanoma, mutant p53, 48 h)?
Answer: Its TGI is 7.91 µM.

Question: And the GI50 ([13]; Homo sapiens, SK-MEL-5, 48 h)?
Answer: Its GI50 is 1520 nM.

Question: And the CC50 ([13]; Homo sapiens, SK-MEL-5, 48 h, read-out: LC50)?
Answer: Its CC50 is 18.6 µM.

Question: What about the TGI ([13]; SK-MEL-5, melanoma, wild-type p53, 48 h) of the same compound?
Answer: The TGI was 6.28 µM.

Question: What about the GI50 ([14]; Homo sapiens, UACC-257, 48 h) of the same compound?
Answer: Its GI50 is 3.08 µM.

Question: And the CC50 ([14]; Homo sapiens, UACC-257, 48 h, read-out: LC50)?
Answer: Its CC50 is 29.4 µM.

Question: What about the TGI ([14]; UACC-257, melanoma, wild-type p53, 48 h) of the same compound?
Answer: Its TGI is 10.8 µM.

Question: And the GI50 ([15]; Homo sapiens, IGROV-1, 48 h)?
Answer: The GI50 was 886 nM.

Question: What about the CC50 ([15]; Homo sapiens, IGROV-1, 48 h, read-out: LC50) of the same compound?
Answer: The CC50 was 8.65 µM.

Question: What about the TGI ([15]; IGROV1, ovarian cancer, mutant p53, 48 h) of the same compound?
Answer: Its TGI is 2.34 µM.

Question: What about the GI50 ([16]; Homo sapiens, OVCAR-4, 48 h) of the same compound?
Answer: The GI50 was 1160 nM.

Question: And the CC50 ([16]; Homo sapiens, OVCAR-4, 48 h, read-out: LC50)?
Answer: The CC50 was 18.4 µM.

Question: What about the TGI ([16]; OVCAR-4, ovarian cancer, mutant p53, 48 h) of the same compound?
Answer: Its TGI is 5.45 µM.

Question: And the GI50 ([17]; Homo sapiens, SK-OV-3, 48 h)?
Answer: Its GI50 is 5.11 µM.

Question: And the CC50 ([17]; Homo sapiens, SK-OV-3, 48 h, read-out: LC50)?
Answer: The CC50 was 25.5 µM.

Question: What about the TGI ([17]; SK-OV-3, ovarian cancer, no p53 protein expressed, 48 h) of the same compound?
Answer: The TGI was 11.4 µM.

Question: And the TGI ([18]; 786-0, renal cancer, mutant p53, 48 h)?
Answer: The TGI was 1.85 µM.

Question: And the GI50 ([18]; Homo sapiens, 786-0, 48 h)?
Answer: Its GI50 is 848 nM.

Question: What about the CC50 ([18]; Homo sapiens, 786-0, 48 h, read-out: LC50) of the same compound?
Answer: Its CC50 is 4.05 µM.

Question: And the GI50 ([19]; Homo sapiens, 48 h)?
Answer: Its GI50 is 874 nM.

Question: What about the CC50 [19, 27] of the same compound?
Answer: Its CC50 is 5.55 µM.

Question: And the TGI ([19]; renal cancer, wild-type p53, 48 h)?
Answer: The TGI was 2.14 µM.

Question: What about the TGI ([20]; CAKI-1, renal cancer, wild-type p53, 48 h) of the same compound?
Answer: The TGI was 4.70 µM.

Question: What about the GI50 ([20]; Homo sapiens, CAKI-1, 48 h) of the same compound?
Answer: The GI50 was 1280 nM.

Question: And the CC50 ([20]; Homo sapiens, CAKI-1, 48 h, read-out: LC50)?
Answer: Its CC50 is 15.4 µM.

Question: And the GI50 ([21]; Homo sapiens, RXF 393, 48 h)?
Answer: The GI50 was 811 nM.

Question: And the CC50 ([21]; Homo sapiens, RXF 393, 48 h, read-out: LC50)?
Answer: Its CC50 is 3.02 µM.

Question: And the TGI ([21]; RXF 393, renal cancer, mutant p53, 48 h)?
Answer: Its TGI is 1.56 µM.

Question: What about the GI50 ([22]; Homo sapiens, PC-3, 48 h) of the same compound?
Answer: Its GI50 is 1400 nM.

Question: What about the CC50 ([22]; Homo sapiens, PC-3, 48 h, read-out: LC50) of the same compound?
Answer: Its CC50 is 21.4 µM.

Question: And the TGI ([22]; PC-3, prostate cancer, mutant p53 (null p53 protein), 48 h)?
Answer: Its TGI is 5.17 µM.

Question: What about the TGI ([23]; BT-549, breast cancer, mutant p53, 48 h) of the same compound?
Answer: The TGI was 2.77 µM.

Question: And the GI50 ([23]; Homo sapiens, BT-549, 48 h)?
Answer: Its GI50 is 1020 nM.

Question: And the CC50 ([23]; Homo sapiens, BT-549, 48 h, read-out: LC50)?
Answer: Its CC50 is 10.2 µM.

Question: What about the GI50 ([24]; Homo sapiens, T47D) of the same compound?
Answer: The GI50 was 1340 nM.

Question: And the CC50 ([24]; Homo sapiens, T47D, read-out: LC50)?
Answer: The CC50 was 38 µM.

Question: What about the TGI ([24]; T-47D, breast cancer, mutant p53) of the same compound?
Answer: The TGI was 6.72 µM.

Question: What about the GI50 ([25]; Homo sapiens, MDA-MB-468, 48 h) of the same compound?
Answer: Its GI50 is 797 nM.

Question: What about the CC50 ([25]; Homo sapiens, MDA-MB-468, 48 h, read-out: LC50) of the same compound?
Answer: The CC50 was 3.55 µM.

Question: And the TGI ([25]; MDA-MB-468, breast cancer, mutant p53, 48 h)?
Answer: Its TGI is 1.68 µM.

Question: And the GI50 ([26]; Homo sapiens, read-out: Mean of Inhibition Data (MID) GI50, 10^MID)?
Answer: Its GI50 is 1290 nM.

Question: What about the CC50 ([26]; Homo sapiens, read-out: Mean of Inhibition Data (MID) LC50, 10^MID) of the same compound?
Answer: The CC50 was 16.6 µM.

Question: And the “induction of cancer cell death (classification)” value ([26]; NCI 60 panel overall)?
Answer: Its value is “tumoricidal”.

Question: What about the “Mean of Inhibition Data (MID) TGI, 10^MID” value ([26]; mean over all tested cell lines of the NCI 60 panel) of the same compound?
Answer: The value was 4.677 µM.
